The values below come from patent US20190388421A1, “NOVEL COMPOUNDS AND PHARMACEUTICAL COMPOSITIONS THEREOF FOR THE TREATMENT OF FIBROSIS” (Galapagos NV, priority 2016, published 2019).

pEC50, pIC50: −log10 of the molar value.

Assay [1] concerns the target T1, human GPCR sphingosine 1-phosphate receptor 2 (S1PR2) (Homo sapiens, UniProt O95136).
T1 construct: host or cells: CHO
As to the kind of experiment: S1P2 antagonist assay (Ca2+ flux, S1P at EC80). Type of assay: cell-based. Conditions: CHO-S1PR2 cells, highest concentration 20 μM. Put shortly: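 CHO cells stably overexpressing human S1PR2, serum-starved 1 h and loaded with Fluo8 dye, were read for 3 min after compound addition, then stimulated with S1P at EC80 after 15 min at 37 °C. Top concentration 20 μM in a 10-point 1/3 series; Ca2+ fluorescence ratio normalized to vehicle and S1P EC80, giving EC50.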
(Calcium assays in cells follow changes in intracellular calcium, usually with a dye or a luminescent sensor.)

Assay [2] has as its target T2, human GPCR sphingosine 1-phosphate receptor 1 (S1PR1) (Homo sapiens, UniProt P21453).
T2 construct: host or cells: CHO
As to the kind of experiment: S1PR1 selectivity assay (Ca2+ flux, antagonist). Type of assay: cell-based. Conditions: S1P1 antagonist EC50, CHO cells overexpressing human S1PR1 and Gq protein. Summed up:
(§1)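 CHO cells stably overexpressing human S1PR1 or S1PR5 with Gq were preincubated with compound 15 min at 37 °C, then stimulated with S1P at EC80 (S1PR1) or an S1PR5-specific agonist (S1PR5). Ca2+ fluorescence was read for 3 min; 10-point 1/3 dilutions from 20 μM final, normalized to vehicle and EC80 trigger, gave EC50.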

Assay [3] addresses T3, human GPCR sphingosine 1-phosphate receptor 5 (S1PR5) (Homo sapiens, UniProt Q9H228).
T3 construct: host or cells: CHO
As to the kind of experiment: S1PR5 selectivity assay (Ca2+ flux, antagonist, S1PR5 specific agonist trigger). Type of assay: cell-based. The settings on record: S1P5 antagonist EC50, CHO cells overexpressing human S1PR5 and Gq protein. Put shortly: as §1

For a further assay, the target named is T4, S1PR2 (Homo sapiens, UniProt O95136).
T4 construct: expressed in transfected cells
As to the kind of experiment: GTP-γS binding assay ([35S]GTPγS, S1P at EC80, S1PR2 membranes). Type of assay: biochemical. The settings on record: membranes from stable cell line over expressing S1PR2, read-out: S1PR2 EC. Summed up: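 Compounds tested against S1P at its EC80 on membranes (2.5 μg/well) from a stable S1PR2-overexpressing line, pre-incubated with 1 μM GDP 15 min at 4 °C. Buffer: 20 mM Tris pH 7.5, 10 mM MgCl2, 100 mM NaCl, 0.1% fatty-acid-free BSA, 50 ug/ml saponin. Incubated 4 h at room temperature; [35S]GTPγS binding read by WGA SPA beads.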
A general note: GTPγS resists hydrolysis and so accumulates on activated G proteins.

Assay [4] has as its system HFL-1 cells. As to the kind of experiment: IL8 assay (S1P induced IL-8 production). Type of assay: cell-based. Conditions: Homo sapiens, HFL1; S1P (1 μM) induced IL-8, HFL-1 cells, without HSA. On the procedure:
(§2) S1P is able to induce cytokines such as IL-8 in a process that is S1PR2 dependent (O'Sullivan et al, 2014; Bruennert et al, 2015). This assay is designed to test inhibitory activity of compounds on S1P induced IL-8 on HFL-1 cells, a human fetal lung fibroblast cell line.
Human Fetal Lung cells (HFL-1) are seeded in 96 well plates in growth medium (F12K+10% heat inactivated FBS+1% Pen/strep). After overnight incubation at 37° C., 5% CO2 cells are refreshed with starvation medium without HSA (F12K+1% FBS+1% Pen/strep). On day three, compounds are added (10 point serial dilution, 30 μM highest concentration, ⅓ dilution, 0.3% DMSO final) and plates are incubated for one hour at 37° C., 5% CO2. Subsequently S1P at 1 μM final concentration is added and plates are incubated for 16 to 24 hours at 37° C., 5% CO2 after which the supernatant was collected. IL-8 levels in the supernatant are determined with the IL-8 ELISA of R&D systems.

For assay [5], the system named is HFL-1 cells. As to the kind of experiment: IL8 assay in the presence of Human Serum Albumin. Conditions: HFL1, S1P (5 μM) induced IL-8, HFL-1 cells, with 2% HSA, read-out: HSA IL8 EC50. Type of assay: cell-based. On the procedure: as §2
To evaluate the influence of plasma protein binding of Sip as well as compound, the S1P induced IL-8 levels were evaluated in presence of 2% Human Serum Albumin (HSA, equivalent to 40% human serum). By adding 2% HSA, which affects both the activity of the compounds as well as the S1P potency, the physiological condition are reproduced and the shift in potency expected under in vivo serum conditions can be measured.
Human Fetal Lung cells (HFL-1) are seeded in 96 well plates in growth medium (F12K+10% heat inactivated FBS+1% Pen/strep). After overnight incubation at 37° C., 5% CO2 cells are refreshed with starvation medium with HSA (F12K+1% FBS+1% Pen/strep+1.95% HSA). On day three, compounds are added (10 point serial dilution, 30 μM highest concentration, 1/3 dilution, 0.3% DMSO final) and plates are incubated for 1 h at 37° C., 5% CO2. Subsequently S1P at 5 μM final concentration is added and plates are incubated for 16 to 24 h at 37° C., 5% CO2 after which the supernatant was collected. IL-8 levels in the supernatant are determined with the IL-8 ELISA of R&D systems.

T4 sequence (O95136 whole entry): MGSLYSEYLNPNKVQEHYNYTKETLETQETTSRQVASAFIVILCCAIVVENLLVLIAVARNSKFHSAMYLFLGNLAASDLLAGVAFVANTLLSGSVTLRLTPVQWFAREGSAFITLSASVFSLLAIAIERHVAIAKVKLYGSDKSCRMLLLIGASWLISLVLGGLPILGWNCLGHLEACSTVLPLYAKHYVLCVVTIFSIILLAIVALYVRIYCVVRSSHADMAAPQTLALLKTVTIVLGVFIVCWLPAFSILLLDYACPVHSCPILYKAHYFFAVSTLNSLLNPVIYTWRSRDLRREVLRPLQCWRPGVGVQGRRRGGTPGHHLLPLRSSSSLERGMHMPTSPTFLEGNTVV
T1 sequence (O95136 whole entry): as above
T2 sequence (P21453 whole entry): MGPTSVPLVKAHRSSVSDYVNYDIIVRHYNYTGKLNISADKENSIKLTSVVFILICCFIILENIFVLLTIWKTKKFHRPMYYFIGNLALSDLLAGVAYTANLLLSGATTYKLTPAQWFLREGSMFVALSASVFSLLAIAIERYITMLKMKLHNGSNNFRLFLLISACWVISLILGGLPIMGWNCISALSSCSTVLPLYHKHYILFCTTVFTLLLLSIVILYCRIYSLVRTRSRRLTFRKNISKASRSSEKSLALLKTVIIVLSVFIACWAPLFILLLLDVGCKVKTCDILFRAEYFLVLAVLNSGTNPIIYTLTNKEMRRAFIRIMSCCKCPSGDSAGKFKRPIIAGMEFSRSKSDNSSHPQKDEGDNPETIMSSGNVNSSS
T3 sequence (Q9H228 whole entry): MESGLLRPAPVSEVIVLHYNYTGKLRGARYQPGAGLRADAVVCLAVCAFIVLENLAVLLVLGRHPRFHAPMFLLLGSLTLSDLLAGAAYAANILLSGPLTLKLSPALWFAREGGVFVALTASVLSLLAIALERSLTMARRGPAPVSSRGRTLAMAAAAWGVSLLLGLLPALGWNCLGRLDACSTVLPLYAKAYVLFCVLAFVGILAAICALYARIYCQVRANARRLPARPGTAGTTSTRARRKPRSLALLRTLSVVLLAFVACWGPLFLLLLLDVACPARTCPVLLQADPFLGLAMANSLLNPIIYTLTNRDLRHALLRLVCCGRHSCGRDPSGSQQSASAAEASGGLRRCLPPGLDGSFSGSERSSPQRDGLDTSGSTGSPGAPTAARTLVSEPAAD

Consider `CCOc1cc(NC(=O)NCc2cc(C)c(-c3cn(C)nc3C(F)(F)F)nn2)cc(Cl)n1` [Compound 2, 1-(2-Chloro-6-ethoxy-pyridin-4-yl)-3-[5-methyl-6-(1-methyl-3-trifluoromethyl-1H-pyrazol-4-yl)-pyridazin-3-ylmethyl]-urea], for which the pEC50 was 8.07 in assay [1]; 5.34 in assay [2]; 5.34 in assay [3]; 7.65 at S1PR2; 8.82 in the assay on HFL-1 cells [4]. In the assay with HFL-1 cells [5], the pIC50 was 7.60.
Consider `CCOc1cc(NC(=O)NC(C)c2cc(C)c(-c3cn(C)nc3C(F)(F)F)nn2)cc(Cl)n1` (stereo not drawn) [Compound 3, 1-(2-chloro-6-ethoxy-4-pyridyl)-3-[1-[5-methyl-6-[1-methyl-3-(trifluoromethyl)pyrazol-4-yl]pyridazin-3-yl]ethyl]urea], for which the pEC50 in assay [1] is 7.59; in assay [2] it was at most 4.70; in assay [3] it was 5.18; on S1PR2, 6.94; with HFL-1 cells [4], 7.66. Besides, in the assay on HFL-1 cells [5], the pIC50 is 6.32.
As to `Cc1cc(CNC(=O)Nc2cc(OCCO)nc(C(F)(F)F)c2)nnc1-c1cn(C)nc1C(F)(F)F` [Compound 4, 1-[2-(2-hydroxyethoxy)-6-(trifluoromethyl)-4-pyridyl]-3-[[5-methyl-6-[1-methyl-3-(trifluoromethyl)pyrazol-4-yl]pyridazin-3-yl]methyl]urea], the pEC50 is 6.46 in assay [1]; at most 4.70 in assay [2]; at most 4.70 in assay [3]; 6.06 on S1PR2; 6.63 with HFL-1 cells [4]. The pIC50 in the assay with HFL-1 cells [5] is 6.19.
`Cc1cc(CNC(=O)Nc2cc(OCC(O)CO)nc(C(F)(F)F)c2)nnc1-c1cn(C)nc1C(F)(F)F` (stereo not drawn) [Compound 5, 1-[2-(2,3-dihydroxypropoxy)-6-(trifluoromethyl)-4-pyridyl]-3-[[5-methyl-6-[1-methyl-3-(trifluoromethyl)pyrazol-4-yl]pyridazin-3-yl]methyl]urea]: the pEC50 in assay [1] was 5.18; in assay [2] it was at most 4.70; in assay [3], at most 4.70; on S1PR2, 4.95; in the assay with HFL-1 cells [4], 5.81. For the same molecule, the pIC50 in the assay with HFL-1 cells [5] was 5.00.
For `CCOc1ncc(NC(=O)NCc2cc(C)c(-c3cn(C)nc3C(F)(F)F)nn2)cc1Cl` [Compound 8, 1-(5-chloro-6-ethoxy-3-pyridyl)-3-[[5-methyl-6-[1-methyl-3-(trifluoromethyl)pyrazol-4-yl]pyridazin-3-yl]methyl]urea], the pEC50 in assay [1] is 7.66; in assay [2] it was at most 4.70; in assay [3], at most 4.70; on S1PR2, 6.51; in the assay on HFL-1 cells [4] it was 7.08. The pIC50 in the assay on HFL-1 cells [5] is 6.77.
As to `CCOc1cc(NC(=O)NCc2cc(C)c(-c3cn(C)nc3C(F)(F)F)nn2)cc(C#N)n1` [Compound 18, 1-(2-cyano-6-ethoxy-4-pyridyl)-3-[[5-methyl-6-[1-methyl-3-(trifluoromethyl)pyrazol-4-yl]pyridazin-3-yl]methyl]urea], the pEC50 in assay [1] was 7.96; in assay [2], 5.18; in assay [3], at most 4.70; at S1PR2, 7.45; in the assay with HFL-1 cells [4], 8.34. In addition, the pIC50 with HFL-1 cells [5] was 7.54.
As for `CCOc1nc(C(F)(F)F)cc(NC(=O)NCc2cc(C)c(-c3cn(C)nc3C(F)(F)F)nn2)c1C` [Compound 30, 1-[2-ethoxy-3-methyl-6-(trifluoromethyl)-4-pyridyl]-3-[[5-methyl-6-[1-methyl-3-(trifluoromethyl)pyrazol-4-yl]pyridazin-3-yl]methyl]urea], the pEC50 is 8.21 in assay [1]; 5.35 in assay [2]; 5.48 in assay [3]; 7.58 on S1PR2; 8.82 with HFL-1 cells [4]. Also, the pIC50 in the assay with HFL-1 cells [5] was 7.42.
With `CCOc1cc(NC(=O)NCc2cc(C)c(-c3cn(C)nc3C(F)(F)F)nn2)cc(C)n1` [Compound 35, 1-(2-ethoxy-6-methyl-4-pyridyl)-3-[[5-methyl-6-[1-methyl-3-(trifluoromethyl)pyrazol-4-yl]pyridazin-3-yl]methyl]urea], the pEC50 was 7.13 in assay [1]; at most 4.70 in assay [2]; at most 4.70 in assay [3]; 6.62 on S1PR2; 7.21 in the assay on HFL-1 cells [4]. In the assay on HFL-1 cells [5], the pIC50 was 6.73.
Consider `CCOc1nc(Cl)cc(NC(=O)NCc2cc(C)c(-c3cn(C)nc3C(F)(F)F)nn2)n1` [Compound 38, 1-(6-chloro-2-ethoxy-pyrimidin-4-yl)-3-[[5-methyl-6-[1-methyl-3-(trifluoromethyl)pyrazol-4-yl]pyridazin-3-yl]methyl]urea], for which the pEC50 in assay [1] is 7.40; in assay [2], at most 4.70; in assay [3], at most 4.70; at S1PR2 it was 6.96; in the assay with HFL-1 cells [4], 7.50. The pIC50 in the assay on HFL-1 cells [5] was 6.70.
On to `Cc1cc(CNC(=O)Nc2cc(OCC3(C(F)(F)F)CC3)nc(C(F)(F)F)c2)nnc1-c1cn(C)nc1C(F)(F)F` [Compound 39, 1-[[5-methyl-6-[1-methyl-3-(trifluoromethyl)pyrazol-4-yl]pyridazin-3-yl]methyl]-3-[2-(trifluoromethyl)-6-[[1-(trifluoromethyl)cyclopropyl]methoxy]-4-pyridyl]urea], for which the pEC50 in assay [1] is 6.66; in assay [2] it was 5.18; in assay [3] it was 5.18; on S1PR2, 5.98; in the assay on HFL-1 cells [4] it was 6.91. Besides, the pIC50 in the assay with HFL-1 cells [5] was 5.00.
Regarding `Cc1cc(CNC(=O)Nc2cc(OC3CCOCC3)nc(C(F)(F)F)c2)nnc1-c1cn(C)nc1C(F)(F)F` [Compound 40, 1-[[5-methyl-6-[1-methyl-3-(trifluoromethyl)pyrazol-4-yl]pyridazin-3-yl]methyl]-3-[2-tetrahydropyran-4-yloxy-6-(trifluoromethyl)-4-pyridyl]urea], the pEC50 in assay [1] was 6.54; in assay [2] it was 5.29; in assay [3], 5.18; on S1PR2 it was 5.97; in the assay on HFL-1 cells [4] it was 6.85. Further, the pIC50 in the assay with HFL-1 cells [5] is 5.41.
For `COCC(C)Oc1cc(NC(=O)NCc2cc(C)c(-c3cn(C)nc3C(F)(F)F)nn2)cc(C(F)(F)F)n1` (stereo not drawn) [Compound 41, 1-[2-(2-methoxy-1-methyl-ethoxy)-6-(trifluoromethyl)-4-pyridyl]-3-[[5-methyl-6-[1-methyl-3-(trifluoromethyl)pyrazol-4-yl]pyridazin-3-yl]methyl]urea], the pEC50 is 7.00 in assay [1]; at most 4.70 in assay [2]; at most 4.70 in assay [3]; 6.27 at S1PR2; 7.31 in the assay with HFL-1 cells [4]. Moreover, the pIC50 in the assay on HFL-1 cells [5] was 6.22.
In the case of `CCOc1nc(C(F)(F)F)cc(NC(=O)NC(C)c2cc(C)c(-c3cn(C)nc3C(F)(F)F)nn2)c1C` (stereo not drawn) [Compound 45, 1-[2-ethoxy-3-methyl-6-(trifluoromethyl)-4-pyridyl]-3-[1-[5-methyl-6-[1-methyl-3-(trifluoromethyl)pyrazol-4-yl]pyridazin-3-yl]ethyl]urea], the pEC50 in assay [1] was 7.71; in assay [2] it was at most 4.70; in assay [3], 5.18; at S1PR2 it was 6.68; with HFL-1 cells [4], 7.39. Further, in the assay on HFL-1 cells [5], the pIC50 is 7.07.
